From patent US12071404B2, “Aza (indole)-, benzothiophene-, and benzofuran-3-sulfonamides” (UCB Pharma GmbH, priority 2016, dated 2024)

Molecular target: GPR17 (Homo sapiens, UniProt Q13304)
Assay: Calcium mobilization functional assay (GPR17 Ca2+ assay)
Format: cell-based
Set-up: host or cells: Flp-In T-REx CHO
Details: CHO hGPR17 cells, inhibition of 50 nM MDL29,951, Calcium 5 dye, FLIPR; read-out: Ca2+ assay pIC50 (converted)
Method: Flp-In T-REx CHO cells stably expressing human GPR17 receptor (CHO hGPR17) from Evi Kostenis' lab (Bonn University, Germany) were cultured at 37° C. in a humidified atmosphere of 5% CO2. Cells were grown in DMEM with Nutrient Mixture F-12 supplemented with hygromycin B (500 μg/mL) and blasticidin (30 μg/mL). Expression from the Flp-In locus was induced by treatment with doxycycline (1 μg/mL) for 16-20 h prior assays.
GPR17 is a G-protein coupled receptor. GPR17 activation triggers Gq-type G-protein signaling resulting in endoplasmic reticulum calcium (Ca^2+) stores release in cytosol which can be measured using Calcium 5 dye, a fluorescent indicator dye of cytosolic Ca^2+ levels. All Examples were tested in GPR17 Ca^2+ assay to determine (screen) their GPR17 modulating activity.
CHO hGPR17 were defrosted and seeded at a density of 20,000 cells per well into black 384-well plates with clear bottom. Cells were incubated overnight at 37° C. in a humidified atmosphere of 5% CO2. Sixteen to twenty hours after seeding, CHO hGPR17 were loaded for 60 min with Calcium 5 dye, a cytosolic Ca^2+ indicator fluorescent dye, according to manufacturer's instructions. Fluorescent signal relative to cytosolic Ca^2+ concentration was recorded over time at room temperature in FLIPR Tetra reader. […] Then, 50 nM MDL29,951, a GPR17 agonist, was added to the cells. Inhibitory effects of varying concentrations test compounds were measured and resulting plC50s were determined. […] Analysis and curve fitting were performed in ActivityBase XE using XLfit 4-parameter logistic equation y=A+((B−A)/(1+((C/x)^D))) where A, B, C and D stand for minimum y, maximum y, IC50 and slope, respectively.
The activities of the Example compounds tested are depicted in the table in Section B2B below. The activity ranges A, B and C refer to plC50 values in the Ca^2+ assay as follows: “A”: plC50<7.5, “B”: plC50 7.5<x≤ 8.5, “C”: plC50>8.5

Sequence of GPR17 (Q13304 whole entry): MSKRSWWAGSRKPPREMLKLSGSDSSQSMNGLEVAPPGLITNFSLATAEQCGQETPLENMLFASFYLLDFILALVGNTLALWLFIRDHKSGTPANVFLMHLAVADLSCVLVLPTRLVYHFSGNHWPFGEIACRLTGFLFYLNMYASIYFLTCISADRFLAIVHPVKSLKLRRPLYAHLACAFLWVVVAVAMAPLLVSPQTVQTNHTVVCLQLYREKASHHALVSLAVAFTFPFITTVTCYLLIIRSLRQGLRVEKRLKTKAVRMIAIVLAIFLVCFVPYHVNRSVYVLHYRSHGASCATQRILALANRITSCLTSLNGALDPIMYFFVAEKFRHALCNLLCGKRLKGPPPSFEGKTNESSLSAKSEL

Row | SMILES | IC50 [nM]
1 | O=S(=O)(Nc1ccc2ncsc2c1)c1c[nH]c2cc(Cl)ccc12 [Compound I-3, N-(1,3-benzothiazol-6-yl)-6-chloro-1H-indole-3-sulfonamide] | > 31.6
2 | O=S(=O)(Nc1cc(F)ccc1F)c1c[nH]c2cc(F)ccc12 [Compound I-37, N-(2,5-difluorophenyl)-6-fluoro-1H-indole-3-sulfonamide] | > 31.6
3 | O=S(=O)(Nc1cc(Cl)cc(Cl)n1)c1c[nH]c2cc(Cl)ccc12 [Compound I-40, 6-chloro-N-(4,6-dichloropyridin-2-yl)-1H-indole-3-sulfonamide] | > 31.6
4 | O=S1(=O)CCc2ccc(NS(=O)(=O)c3c[nH]c4cc(Cl)ccc34)cc21 [Compound I-10, 6-chloro-N-(1,1-dioxido-2,3-dihydro-1-benzothiophen-6-yl)-1H-indole-3-sulfonamide] | > 31.6
5 | O=S(=O)(Nc1cc(F)c(F)cc1F)c1c[nH]c2cc(F)ccc12 [Compound I-41, 6-fluoro-N-(2,4,5-trifluorophenyl)-1H-indole-3-sulfonamide] | > 31.6
6 | Cc1cc2c(S(=O)(=O)Nc3cc(F)ccc3F)c[nH]c2cc1Br [Compound I-27, 6-bromo-N-(2,5-difluorophenyl)-5-methyl-1H-indole-3-sulfonamide] | > 31.6
7 | N#Cc1ccc(NS(=O)(=O)c2c[nH]c3c(Cl)cccc23)cc1 [Compound I-16, 7-chloro-N-(4-cyanophenyl)-1H-indole-3-sulfonamide] | > 31.6
8 | N#Cc1ccc(NS(=O)(=O)c2c[nH]c3cc(Cl)ccc23)nc1 [Compound I-61, 6-chloro-N-(5-cyanopyridin-2-yl)-1H-indole-3-sulfonamide] | > 31.6
9 | COc1ccc2c(S(=O)(=O)Nc3cccc4nsnc34)c[nH]c2c1 [Compound I-64, N-(2,1,3-benzothiadiazol-4-yl)-6-methoxy-1H-indole-3-sulfonamide] | > 31.6
10 | Cc1cc2c(S(=O)(=O)Nc3ccc(C#N)cc3)c[nH]c2cc1Br [Compound I-18, 6-bromo-N-(4-cyanophenyl)-5-methyl-1H-indole-3-sulfonamide] | 3.16 to 31.6
11 | O=S(=O)(Nc1cc(F)ccc1F)c1c[nH]c2ncc(I)cc12 [Compound I-81, N-(2,5-difluorophenyl)-5-iodo-1H-pyrrolo[2,3-b]pyridine-3-sulfonamide] | > 31.6
12 | O=S(=O)(Nc1cc(F)ccc1F)c1c[nH]c2cc3c(cc12)OCO3 [Compound I-30, N-(2,5-difluorophenyl)-5H-[1,3]dioxolo[4,5-f]indole-7-sulfonamide] | > 31.6
13 | O=S(=O)(Nc1cc(F)cc(F)c1)c1c[nH]c2cc(Cl)ccc12 [Compound I-21, 6-chloro-N-(3,5-difluorophenyl)-1H-indole-3-sulfonamide] | > 31.6
14 | O=S(=O)(Nc1ccc(I)cc1F)c1c[nH]c2c1ccc1ccccc12 [Compound I-47, N-(2-fluoro-4-iodophenyl)-1H-benzo[g]indole-3-sulfonamide] | > 31.6
15 | CS(=O)(=O)c1ccc2c(S(=O)(=O)Nc3cccc4c3OCO4)c[nH]c2c1 [Compound I-33, N-(1,3-benzodioxol-4-yl)-6-(methylsulfonyl)-1H-indole-3-sulfonamide] | > 31.6
16 | O=S(=O)(Nc1ccc2n[se]nc2c1)c1c[nH]c2cc(Cl)ccc12 [Compound I-161, N-(2,1,3-benzoselenadiazol-5-yl)-6-chloro-1H-indole-3-sulfonamide] | 3.16 to 31.6
17 | Cc1ccc2c(S(=O)(=O)Nc3ccc(C#N)cc3)c[nH]c2c1 [Compound I-20, N-(4-cyanophenyl)-6-methyl-1H-indole-3-sulfonamide] | 3.16 to 31.6
18 | O=S(=O)(Nc1cccc2c1OCO2)c1c[nH]c2cc(F)ccc12 [Compound I-31, N-(1,3-benzodioxol-4-yl)-6-fluoro-1H-indole-3-sulfonamide] | > 31.6
19 | N#Cc1ccc(NS(=O)(=O)c2c[nH]c3cc4c(cc23)OCO4)cc1 [Compound I-19, N-(4-cyanophenyl)-5H-[1,3]dioxolo[4,5-f]indole-7-sulfonamide] | > 31.6

Other lines, results leading:

Row | IC50 [nM] | SMILES
20 | > 31.6 | N#Cc1ccc(NS(=O)(=O)c2c[nH]c3cc(Cl)ccc23)c2nsnc12 [Compound I-163, 6-chloro-N-(7-cyano-2,1,3-benzothiadiazol-4-yl)-1H-indole-3-sulfonamide]
21 | > 31.6 | O=S(=O)(Nc1cccc2nsnc12)c1c[nH]c2ccccc12 [Compound I-106, N-(2,1,3-benzothiadiazol-4-yl)-1H-indole-3-sulfonamide]
22 | > 31.6 | C#Cc1ccc(NS(=O)(=O)c2c[nH]c3nc(Cl)ccc23)cc1 [Compound I-84, 6-chloro-N-(4-ethynylphenyl)-1H-pyrrolo[2,3-b]pyridine-3-sulfonamide]
23 | > 31.6 | O=S(=O)(Nc1cccc(F)c1Cl)c1c[nH]c2nc(Cl)ccc12 [Compound I-87, 6-chloro-N-(2-chloro-3-fluorophenyl)-1H-pyrrolo[2,3-b]pyridine-3-sulfonamide]
24 | 3.16 to 31.6 | O=S(=O)(Nc1cc2nsnc2cc1F)c1c[nH]c2cc(F)ccc12 [Compound I-172, 6-fluoro-N-(6-fluoro-2,1,3-benzothiadiazol-5-yl)-1H-indole-3-sulfonamide]
25 | > 31.6 | N#Cc1cc(F)c(NS(=O)(=O)c2c[nH]c3c(Cl)cccc23)cc1F [Compound I-117, 7-chloro-N-(4-cyano-2,5-difluorophenyl)-1H-indole-3-sulfonamide]
26 | > 31.6 | O=S(=O)(Nc1cccc(F)c1F)c1c[nH]c2cc(Cl)ccc12 [Compound I-205, 6-chloro-N-(2,3-difluorophenyl)-1H-indole-3-sulfonamide]
27 | < 3.16 | COc1nc(NS(=O)(=O)c2c[nH]c3c(Br)c(Cl)ccc23)c(F)cc1CC#N [Compound I-322, 7-bromo-6-chloro-N-[5-(cyanomethyl)-3-fluoro-6-methoxypyridin-2-yl]-1H-indole-3-sulfonamide]
28 | > 31.6 | COCCOc1ccc2c(S(=O)(=O)Nc3cc(F)c(C#N)cc3F)c[nH]c2c1 [Compound I-146, N-(4-cyano-2,5-difluorophenyl)-6-(2-methoxyethoxy)-1H-indole-3-sulfonamide]
29 | > 31.6 | COc1cccc2c(S(=O)(=O)Nc3ccc(C#N)cc3F)c[nH]c12 [Compound I-115, N-(4-cyano-2-fluorophenyl)-7-methoxy-1H-indole-3-sulfonamide]
30 | > 31.6 | O=S(=O)(Nc1cc(F)c(F)cc1F)c1c[nH]c2ncc(I)cc12 [Compound I-103, 5-iodo-N-(2,4,5-trifluorophenyl)-1H-pyrrolo[2,3-b]pyridine-3-sulfonamide]
31 | > 31.6 | Cc1cc(NS(=O)(=O)c2c[nH]c3cc(Cl)ccc23)ccc1C#N [Compound I-209, 6-chloro-N-(4-cyano-3-methylphenyl)-1H-indole-3-sulfonamide]
32 | > 31.6 | CC(C#N)c1ccc(NS(=O)(=O)c2c[nH]c3cc(Cl)ccc23)c(F)c1 (stereo not shown) [Compound I-207, 6-chloro-N-[4-(1-cyanoethyl)-2-fluorophenyl]-1H-indole-3-sulfonamide]
33 | > 31.6 | O=S(=O)(Nc1ccc(F)cc1F)c1c[nH]c2ncc(I)cc12 [Compound I-82, N-(2,4-difluorophenyl)-5-iodo-1H-pyrrolo[2,3-b]pyridine-3-sulfonamide]
34 | 3.16 to 31.6 | N#Cc1cc(F)c(NS(=O)(=O)c2c[nH]c3ccccc23)cc1F [Compound I-145, N-(4-cyano-2,5-difluorophenyl)-1H-indole-3-sulfonamide]
35 | < 3.16 | O=S(=O)(Nc1ccc2nsnc2c1)c1c[nH]c2cc(C(F)(F)F)ccc12 [Compound I-192, N-(2,1,3-benzothiadiazol-5-yl)-6-(trifluoromethyl)-1H-indole-3-sulfonamide]
36 | > 31.6 | O=S(=O)(Nc1ccc(Br)c2c1OC(F)(F)O2)c1c[nH]c2cc(Cl)ccc12 [Compound I-130, N-(7-bromo-2,2-difluoro-1,3-benzodioxol-4-yl)-6-chloro-1H-indole-3-sulfonamide]
37 | 3.16 to 31.6 | Cc1ccc2c(S(=O)(=O)Nc3cc(F)c(C#N)cc3F)c[nH]c2c1 [Compound I-187, N-(4-cyano-2,5-difluorophenyl)-6-methyl-1H-indole-3-sulfonamide]
38 | > 31.6 | N#Cc1ccc(NS(=O)(=O)c2c[nH]c3cc(F)c(F)cc23)cc1 [Compound I-120, N-(4-cyanophenyl)-5,6-difluoro-1H-indole-3-sulfonamide]
39 | > 31.6 | Cc1noc(C)c1-c1ccc2c(S(=O)(=O)Nc3ccc(C#N)cc3F)c[nH]c2c1 [Compound I-234, N-(4-cyano-2-fluorophenyl)-6-(3,5-dimethyl-1,2-oxazol-4-yl)-1H-indole-3-sulfonamide]
40 | > 31.6 | Cc1cc(NS(=O)(=O)c2c[nH]c3cc(Cl)ccc23)c(F)cc1Cl [Compound I-214, 6-chloro-N-(4-chloro-2-fluoro-5-methylphenyl)-1H-indole-3-sulfonamide]
